# US20180111991A1, “MODULATORS OF ACTIVIN AND METHODS FOR MODULATING IMMUNE RESPONSES AND T FOLLICULAR HELPER CELLS” (LA JOLLA INSTITUTE FOR ALLERGY AND IMMUNOLOGY, priority 2014, published 2018)
# Entries after “also recorded” stand apart in the source; their conditions may differ.
# Columns and labels:
# Type in all cases: cell-based
# [1] = test system: human naïve CD4 T cells; assay: In vitro Tfh differentiation, PD-1 and CXCR5 expression by FACS
# Method: (§1) For surface staining, primary-staining panels used for phenotypic analysis or for cell sorting known in the art were used. For the intranuclear staining: cells were treated with the FoxP3 Fixation/Permeabilization kit (eBioscience) and stained in Permeabilization buffer (eBioscience). For cytokine staining: day 3 or day 5 in vitro differentiated cells (specified in the main text or in figure legends) cells were stimulated for 5 hours at 37° C. with Phorbol 12-myristate 13-acetate (PMA, 25 ng/ml) and Ionomycin (1 μg/ml) in the presence of Brefeldin A (5 μg/ml). Cells were fixed with PBS 2% FBS, 1% PFA and permeabilized with PBS 2% FBS, 0.5% Saponin (from quillaja bark, Sigma-Aldrich). Samples were analyzed on a LSR Fortessa Cell Analyzer (BD, Bioscience). Flow cytometry data were analyzed with FlowJo (Tree Star). For cell sorting, cells were sorted using sorted using a FACS Aria (BD, Bioscience).
# (§2) Unless differently specified, naïve CD4^+ T cells were enriched from PBMCs by magnetic bead negative selection with the Naïve CD4^+ T Cell Isolation Kit (Stem Cell Technologies). Purity (CD4^+CD45RA^+) was 90% or higher. Cells (7.5×10^4 cells/well) were activated by Dynabeads Human T-Activator CD3/CD28 (2 μl/well, Life Technologies) and cultured with recombinant human/mouse/rat activin A (50 ng/ml or 100 ng/ml), recombinant human IL-12 (5 ng/ml), recombinant human TGFβ (1 ng/ml), recombinant human IL-23 (10 ng/ml) or recombinant human IL-35 (10 ng/ml) in the presence of and recombinant human IL-7 (4 ng/ml) in AIM-V medium (Life Technologies). All cytokines were from R&D System and Peprotech. The 14 kDa mature human beta A chain of human activin A shares 100% amino acid sequence identity with bovine, feline, mouse, porcine, and rat beta A. Phenotype was quantified after 3 or 5 days, as specified in the main text of Figure legends. Similar results were obtained when using Treg-depleted FACS sorted naïve CD4 T cells, in which cells were sorted from total PBMCs by flow cytometry as CD19^−CD8^−CD14^−CD16^− CD4^+CD45RO^−CD25^− cells. For experiments quantifying supernatant CXCL13 concentration, cells were activated by plate-bound anti-human CD3 (5 μg/ml, BD) and ICOS-L (5 μg/ml, recombinant human B7-H2, R&D). CXCL13 concentrations were determined via human CXCL13 DuoSet ELISA (R&D) on supernatants harvested after 5 days of in vitro culture. For blocking experiments, cells were cultured with anti-activin A blocking mAb (5 μg/ml, clone 69403, R&D), anti-TGFβ mAb (100 μg/ml, clone 1D11.16.8, BioXcell), or equivalent concentration of mouse IgG1 isotype mAb (BioXcell). For blockade of IL-2, cells were cultured with anti-IL-2 blocking mAb (10 μg/ml, clone 5334, R&D) or mouse IgG1 isotype mAb (BioXcell).
# [2] = test system: human naïve CD4 T cells; assay: CCR7 expression by FACS on in vitro differentiated cells; details: for CCR7 downregulation (CCR7+CXCR5+ cells): with or without IL-12 (FIG. 10); for CCR7 expression (MFI): activated CD4 T cells, day 5
# Method: as §1, §2
# [3] = test system: human naïve CD4 T cells; assay: Screening of secretomics recombinant proteins for Tfh marker induction; details: secretomics protein screen, anti-CD3/CD28 beads, 5 days, automated FACS
# Method: FIG. 1A-D: Inhibin beta A (INHBA) emerged from the screen as potent regulator of human Tfh differentiation. (A) Schematic of primary screen. Purified human naïve CD4 T cells from a leukapheresis donor were stimulated by anti-CD3/CD28 beads on 384 well plates on day 0. The GNF secretomics recombinant proteins were added at the beginning of the stimulation. Each secretomics protein was tested in duplicate. After 5 days of in vitro culture, cells were evaluated by automated FACS analysis for the expression of Tfh signature markers, including CXCR5 and PD-1. (B) Primary screen results. Relative enrichment of PD-1^+CXCR5^+ cell induction is reported as Z score for each recombinant protein. INHBA gene product is shown in red. (C) CXCR5 and PD-1 expression from repeat experiment in which INHBA gene product was tested again for its capacity to induce Tfh-like differentiation. (D) Confocal microscopy of INHBA expression in human tonsils. Tonsil sections were stained with anti-INHBA (red) anti-BCL6 (blue) and anti-CD3 (green) Abs. An overlay from one donor representative of six is shown on the left panel. […]
# Naïve CD4^+ T cells were isolated from leukapheresis-derived mononuclear cells via CliniMACS negative selection (Miltenyi Biotec). […] Induction of CXCR5 and PD-1 was assessed after 5 days of in vitro culture using automated FACS acquisition via HTS on LSR Fortessa (BD Biosciences). For each 384 well plate, mean and standard deviation of PD-1^+CXCR5^+ cell frequency induced by each individual recombinant proteins was determined and used to calculate the Z score. Z scores of replicate plates were analyzed independently.
# To discover novel regulators of human Tfh cell differentiation, we performed an unbiased high throughput screen of a human extracellular proteome library consisting of over 2000 human proteins predicted or known to be cytokines, chemokines, morphogens, costimulatory receptors, or single pass transmembrane molecules^19. […] Following 5 days, expression of the Tfh signature markers CXCR5 and PD-1 were measured on the cells by flow cytometry, in an automated fashion. […]
# [4] = test system: human naïve CD4 T cells; assay: FoxP3 induction by FACS in in vitro differentiated cells; details: for FoxP3 expression (FoxP3+ cells): with or without IL-12, day 5
# Method: as §1
# Unless differently specified, naïve CD4^+ T cells were enriched from PBMCs by magnetic bead negative selection with the Naïve CD4^+ T Cell Isolation Kit (Stem Cell Technologies). Purity (CD4^+CD45RA^+) was 90% or higher. […] The 14 kDa mature human beta A chain of human activin A shares 100% amino acid sequence identity with bovine, feline, mouse, porcine, and rat beta A. Phenotype was quantified after 3 or 5 days, as specified in the main text of Figure legends. […] For experiments quantifying supernatant CXCL13 concentration, cells were activated by plate-bound anti-human CD3 (5 μg/ml, BD) and ICOS-L (5 μg/ml, recombinant human B7-H2, R&D). CXCL13 concentrations were determined via human CXCL13 DuoSet ELISA (R&D) on supernatants harvested after 5 days of in vitro culture. […]
# [5] = activin A alone, anti CD3/CD28 coated beads
Substance,"induction of CXCR5 and PD-1 expression ([1]; TGFβ with IL-12, serum free media)",CCR7 downregulation (CCR7+CXCR5+ cells) [2],induction of CXCR5 and PD-1 expression (PD-1+CXCR5+ cells) [3],FoxP3 expression (FoxP3+ cells) [4],"CXCR5 expression [1, 5]","PD-1 induction [1, 5]","PD-1 and CXCR5 expression (PD1+CXCR5+ cells), additive or synergistic effect ([1]; activin A combined with TGFβ)","retention of CXCR5 and PD-1 expression over time ([1]; activin A in combination with IL-12, monitored 0-10 days)","capacity to regulate differentiation of PD-1+CXCR5+ cells, TGFβ compared with activin A ([1]; combined with IL-12)",coexpression of PD-1 and CXCR5 (PD-1+CXCR5+ cells) ([1]; in combination with IL-12),"PD-1 and CXCR5 expression on activated naïve CD4 T cells ([1]; serum free conditions, activin A titration)",CCR7 expression (MFI) [2],CCR7 expression (MFI) ([2]; listed as Activin A),FoxP3 upregulation (FoxP3+CXCR5+ cells) ([4]; activin A with recombinant TGFβ)
TGFβ,can synergize with IL-12 to induce CXCR5 and PD-1 expression,influence CCR7 downregulation,regulator T cell differentiation,induce high FoxP3 expression; also recorded: preferentially induces FoxP3,–,–,–,–,–,–,–,–,–,–
"activin A: commercial recombinant cytokine, homodimer of the INHBA gene product (inhibin beta A)",–,influence CCR7 downregulation,potent regulator of the human Tfh gene program; also recorded: top hit in the screen,but not activin A was found to induce high FoxP3 expression; also recorded: less potent than TGFβ in driving the generation of FoxP3^+ cells; also recorded: induced less FoxP3 expression,some CXCR5 expression,massive PD-1 induction,no synergy between TGFβ and activin A; also recorded: neither PD-1 nor CXCR5 expression changed when activin A and TGFβ were combined,retained,induced similar levels of CXCR5 and PD-1 expression compared to TGFβ,dramatic increase in the coexpression of PD-1 and CXCR5; also recorded: synergistic effect with IL-12,induces both PD-1 and CXCR5 expression on activated naïve CD4 T cells in a dose dependent fashion,decreased CCR7 expression,sufficient to decrease CCR7 expression,synergize in inducing FoxP3 upregulation
